Experimental data: patent US11926826B2, “Twist signaling inhibitor compositions and methods of using the same” (City of Hope, priority 2016, dated 2024)

Tests used:
TWIST1 = TWIST1 knockdown after Lipofectamine 2000 transfection of siRNA in MDA-MB-435S cells (western blot); type: cell-based, human; conditions: unmodified vs passenger-strand modified si419
Experimental: Transient transfection of MDA-MB-435S GFP+ffluc was carried out using LIPOFECTAMINE® 2000 (Thermo Fisher Scientific, Waltham, MA) according to the manufacturer's instructions. LIPOFECTAMINE® 2000 transfection was used to confirm the functionality of the siRNA (si419 and si494) prior to testing their efficacy with MSNs. Transfection of siRNA with MSNs was carried out by incubating the MSNs with the siRNA overnight at 4° C. while rotating the tube constantly. The mixture consisted of 7 parts MSN (diluted to 500 ng/ul in sterile PBS) to 1 part siRNA (diluted to 10 uM). The final concentration for of MSNs and siRNA applied to cells was 17.5 ng/ul and 50 nM, respectively.
Western Blot. Following siRNA treatment described above, cells were lifted from tissue culture wells with 0.25% trypsin, pelleted, and lysed in RIPA buffer. Protein concentration was determined using a BCA Assay (Thermo Fisher Scientific). A total of 30 μg of protein per lane was run on 4% stacking and 12% resolving polyacrylamide gels. Following gel electrophoresis, protein was transferred to Immobilon-P PVDF membrane (Millipore, Billerica, MA) using a Trans-Blot SD Semi-Dry Transfer Cell (Bio-Rad, Hercules, CA). Membranes were then blocked with 5% dry milk dissolved in 1×PBS with 0.1% Tween-20. Antibodies were diluted in blocking buffer (1:250 for anti-TWIST1 and 1:2,500 for anti-Actin). […]

Ovcar8-IP tumors = experiment: Ovcar8-IP intraperitoneal tumor model in NSG mice, MSN-siRNA with or without cisplatin; type: in vivo; conditions: siRNA alone, without cisplatin
Experimental: Animal Studies. The animal studies conducted in these experiments were done in accordance with a protocol approved by the Institutional Animal Care and Use Committee at the City of Hope Beckman Research Institute. A total of 48 female NOD.Cg-Prkdc^scidIl2rg^tm1Wj1/SzJ (NSG) mice (The Jackson Laboratory, Bar Harbor, ME) were used. Ten week old (on average) mice were administered an intraperitoneal injection (IP) of 2.5×10^6 Ovcar8-IP cells in 200 μl of RPMI media. For all studies, mice were placed into four groups: MSN-siQ, MSN-siQ+cisplatin, MSN-si419H, and MSN-si419H+cisplatin (n=4 or n=8). Previous reports show no cellular uptake without MSNs^14, thus a siRNA-only group was not added to this study.
Bioluminescent imaging of mice (using Xenogen IVIS 100 biophotonic imaging system, STTARR, Toronto, Ontario, Canada) commenced seven days after injection of tumor cells in order to ensure engraftment, and continued once a week for four weeks. Mice were given a 100 μl IP injection of 20 mg/ml D-Luciferin (PerkinElmer, Waltham, MA). Ten minutes after the D-luciferin injection, mice were anesthetized with isoflurane (2%-5%) and placed in the biophotonic imager, and images were taken within two minutes. An alfalfa-free version of the regular rodent diet (alfalfa-free CA-1) was administered to the siQ mice to prevent autofluorescence from the regular diet.
IP injections of MSN+siRNA (siQ fluorescently labeled with ALEXAFLUOR® 647 or si419H) were conducted one week after the inoculation of Ovcar8-IP cells and done once or twice per week for a total of four weeks. Mice received 105 μl of 500 ng/μl MSN complexed with 15 μl of 10 μM siRNA per week, divided into one full or two half doses (n=4 and n=8, respectively). This is equivalent to […] MSN/week. Weekly 3 mg/kg IP cisplatin injections were given starting two weeks after initial inoculation of cells.
At completion of the experiment, all animals were euthanized via CO2 asphyxiation. […]
Statistics. All in vivo data was analyzed using one-way ANOVA with correction for multiple comparisons, comparing all groups to MSN-siQ treatment group. […]

## si419: anti-TWIST siRNA; passenger 5′-GGACAAGCUGAGCAAGAUU-3′ (SEQ ID No: 1), guide 5′-AAUCUUGCUCAGCUUGUCCUU-3′ (SEQ ID No: 2) (listed as RNA, chemistry not fully specified)
TWIST1
  knockdown (efficiency, FIG. 6): approximately 80%
Ovcar8-IP tumors
  change in tumor weight: did not produce a statistically significant change in tumor weight
